Laboratory results reported in patent US20100137324A1, “RHO-KINASE INHIBITORS” (priority 2001, published 2010).

melting point | Compound
295 to 298 °C | O=C(Nc1ccncc1)c1nc(Nc2ccc3[nH]ncc3c2)c2ccccc2n1 [Example 131, 4-(1H-indazol-5-ylamino)-N-(4-pyridinyl)-2-quinazolinecarboxamide]
210 to 213 °C | COc1ccc(NC(=O)c2nc(Nc3ccc4[nH]ncc4c3)c3ccccc3n2)cc1 [Example 132, 4-(1H-indazol-5-ylamino)-N-(4-methoxyphenyl)-2-quinazolinecarboxamide]
215 to 217 °C | O=C(NC1CCCCC1)c1nc(Nc2ccc3[nH]ncc3c2)c2ccccc2n1 [Example 133, N-cyclohexyl-4-(1H-indazol-5-ylamino)-2-quinazolinecarboxamide]
237 to 239 °C | O=C(NC1CCCC1)c1nc(Nc2ccc3[nH]ncc3c2)c2ccccc2n1 [Example 134, N-cyclopentyl-4-(1H-indazol-5-ylamino)-2-quinazolinecarboxamide]
297 to 300 °C | O=C(Nc1ccccn1)c1nc(Nc2ccc3[nH]ncc3c2)c2ccccc2n1 [Example 135, 4-(1H-indazol-5-ylamino)-N-(2-pyridinyl)-2-quinazolinecarboxamide]
249 to 252 °C | O=C(Nc1cnc2ccccc2c1)c1nc(Nc2ccc3[nH]ncc3c2)c2ccccc2n1 [Example 136, 4-(1H-indazol-5-ylamino)-N-(3-quinolinyl)-2-quinazolinecarboxamide]
283 to 286 °C | CNC(=O)c1nc(Nc2ccc3[nH]ncc3c2)c2ccccc2n1 [Example 137, 4-(1H-indazol-5-ylamino)-N-methyl-2-quinazolinecarboxamide]
282 to 288 °C | Cc1nc(Nc2ccc3[nH]ncc3c2)c2ccccc2n1 [Example 139, N-(1H-indazol-5-yl)-N-(2-methyl-4-quinazolinyl)amine]
